Test results from patent publication US20220072098A1 (priority 2012, published 2022).
“Also recorded” adds a separate entry of the source.

How the values were obtained:
[1] = Analgesia after i.v. injection of enkephalin, free or in vesicles; conditions: i.v. analgesic peptide (enkephalin)
[2] = target: T1, AChE (Homo sapiens, UniProt P22303); assay: Head group hydrolysis by AChE / choline esterases; assay type: biochemical
Description: FIG. 41: Hydrolysis of the ACh head group of bioamphiphiles GLH-20 and GLH-32 by AChE. Hydrolysis was measured by determining the pH change after addition of AChE to the incubation medium and was converted to change in the proton concentration.

[3] = Vesicle size and size distribution by dynamic light scattering (DLS); assay type: physicochemical
Description: Dynamic light scattering (DLS): Vesicle size and homogeneity was determined by DLS using HPPS-NIBS, light scattering apparatus (ALV-Laser, Langen, Germany) with the laser powered at 3 mW HE-Ne laser line (632.8 nm), at the Ilse Katz Institute for Nanoscale Science and Technology of BGU. Standard vesicle solutions were diluted 1:10 and loaded into a cuvette for light scattering measurements. The measurements were conducted at an angle of 173°, during 30-180 seconds, from different positions of the cell in order to avoid measurements of multiple scattering.
Zeta-potential measurements: Particle size and zeta potential were measured by using zeta potential and Particle size analyzer, ZetaPlus, (Brookhaven Instruments Corporation Ltd, NY, USA), in the range of 10-1000 nm, in the Chemistry Department of BGU. Vesicle solutions were diluted 1:10 in appropriate buffers and loaded into a 4 ml cuvette for light scattering measurements. The measurements were conducted at an angle of 90°, at 10 repeated measurements, and zeta potential was estimated as an average of 5 repeated readings.

[4] = target: T1, AChE; assay: Inhibition of ATC hydrolysis by AChE (Lineweaver-Burk analysis); assay type: biochemical; conditions: three concentrations; Km affected, Vmax not
Description: In order to compare between the inhibitory potentials of the two bolaamphiphiles, the rate of ATC hydrolysis was measured in presence of three concentrations of the GLH compounds and assessed the results by a Lineweaver-Burk analysis.

[5] = CF concentration in brain after i.v. injection of CF-loaded vesicles; assay type: in vivo, mice; conditions: 30 min
Description: Unless otherwise stated, animals were pretreated 15 min before the injection of the test material by pyridostigmine (o.5 mg/kg, i.m.) to inhibit peripheral ChE and thus, reduce vesicle decapsulation in the blood circulation before they enter the brain. The test material was injected i.v. into the tail vein in a volume of 100-200 µl per mouse.
The test material (either free CF or encapsulated CF) was injected into the tail vein of mice in a volume of up to 200 μl. The quantity of encapsulated CF was always determined prior to the administration and similar amounts of either encapsulated or free CF were injected. At 30 minutes after the injection, mice were anesthetized by Xylazine-Ketamine and blood was withdrawn through cardiac puncture, the mouse was perfused with 10 ml PBS and tissues were dissected out. The specimens were homogenized in PBS, deproteinated by 5% (final concentration) of tricholoro acetic acid (TCA), centrifuged and the supernatants were used for fluorescence measurements.
This experiment mesure accumulation of CF in the brain following i.v. administration. […] 30 min after the injection, the animals were sacrificed, perfused with 10 ml PBS and the brains removed and homogenized, deproteinized by 5% tricholoroacetic acid and fluorescence determined in the supernatants obtained following centrifugation. […]

[6] = Preliminary toxicity studies of vesicles / bolas
[7] = Vesicle stability in storage / PBS (CF encapsulation, size)
Description: Vesicle stability: To determine vesicle stability, samples of carboxyfluorescein (CF)-loaded vesicles (see below method for loading vesicles with CF and determination of percent encapsulation) were incubated in PBS and percent encapsulation was determined at different times.
To determine the stability of vesicles with encapsulated protein, vesicle samples were incubated in PBS and the percent encapsulation was determined at different times. Stability was also determined by changes in the vesicle size (by DLS, as was described in previous sections) at various time points after vesicle preparation.
Vesicle stability was evaluated by measuring both changes in the concentration of encapsulated carboxyfluorescein (CF) and vesicles size as a function of time when incubated in PBS at room temperature.
Vesicles were prepared from each of the above formulations by the method of film hydration followed by sonication as described above, and percent CF encapsulation was determined at different times in storage at 4° C.

[8] = Albumin-FITC fluorescence in cerebral cortex after i.v. injection; assay type: in vivo; conditions: mouse cerebral cortex fluorescence
From the text: FIG. 5A: Fluorescence in mouse cerebral cortex after i.v. injection of albumin-FITC (non-encapsulated); FIG. 5B: Fluorescence in mouse cerebral cortex after i.v. injection of albumin-FITC encapsulated in GLH-20 vesicles.

[9] = Trypsinogen encapsulation in bolaamphiphilic vesicles (Sephadex column, UV or fluorescence); assay type: physicochemical; conditions: 10 mg/ml GLH-19 + GLH-20 vesicles
[10] = Integrity of GDNF after encapsulation (SDS-PAGE); conditions: monomeric and dimeric forms
Description: Sodium dodecyl sulfate polyacrylamide gel electrophoresis (SDS-PAGE) was used to examine whether the encapsulation process affects the integrity of the encapsulated GDNF. The test samples were applied on a 5%−/15% SDS-polyacrylamide gel and electrophoresis was performed using a running buffer of 14.4 g glycine and 3 g Tris base per Liter with […]. The gels were then stained by Coomasie blue using the Bio-Safe Coomassie staining protocol and then destained for 30 min in water.

[11] = GDNF encapsulation in bolaamphiphilic vesicles; assay type: physicochemical; conditions: 12.5 μg/ml GDNF (AlexaFluor-488); 10 mg/ml GLH-19 + GLH-20 vesicles
Description: The encapsulation efficiencies of trypsinogen and GDNF were assessed by first running the sample through a Sephadex G-50 column to remove non-encapsulated protein from the encapsulated protein. The fractions obtained from the column (generally 0.5 ml per fraction) were treated by Triton X-100 reduced form to avoid interference with the absorbance reading of the encapsulated material at 280 nm. The concentration of trypsinogen or GDNF proteins was measured by either UV absorbance at 280 nm, or when the quantities of the proteins were low, the proteins were labeled with AlexaFluor®-488 (see procedure for labeling the proteins below) and their quantities determined by fluorescence spectroscopy. Percent encapsulation was determined by dividing the area under the curve of the vesicle fractions by the total area under the curve, which was the sum of the area under the curve of the vesicle preparation and the area under the curve of the free protein. With the use of a calibration curve the concentrations in each were determined. […]
Since GDNF would be used at sub milligram range and its spectroscopic absorption could not be accurately measured at these concentrations, therefore, fluorescent tagging was investigated as a means of increasing the sensitivity of the determination of low quantities of the encapsulated protein. […]

[12] = tested on: SH-SYSY neuroblastoma cells; assay: GDNF activity: activation of AKT and MAPK; assay type: cell-based, human; conditions: 20 ng/ml hGDNF; free, encapsulated or added to empty vesicles; Western blot
Description: To determine the activity of GDNF, we measured the effect of 20 ng/ml hGDNF on the activation of the enzymes AKT and MAPK using SH-SYSY neuroblastoma cells (obtained from the ATTC). For this measurement, we plated the cells in 12 well plates coated with PEI at a density range of 3×10^5-6×10^5 cells/well 48 h prior to the bioassay. Cells were deprived of serum for 2.5 h, stimulated by the test material (plain medium as a control or free GDNF or encapsulated GDNF), washed once with ice-cold PBS and then lysed in […] sample buffer. The lysates were boiled, sonicated and centrifuged and then loaded onto 10% acrylamide gel for SDS-PAGE. After the electrophoresis, the samples were immune-blotted using antibodies against phospho-MAPK44/42 and against phospho-AKT.
The effect of the encapsulation process on GDNF activity was also examined by treating neuroblastoma cells that respond to GDNF by activation of kinases, particularly AKT and MAPK. […] AKT and MAPK are activated when they are phosphorylated and GDNF induces phosphorylation of these enzymes in SH-SY5Y neuroblastoma cells. If GDNF activity is impaired, it will not phosphorylate AKT and MAPK to pAKT and pMAPK, respectively. pAKT and pMAPK can be detected by specific antibodies for the phosphorylated forms of the enzymes on a Western blot.

[13] = formulated with CHOL and CHEMS at a ratio of 2:1:1
[14] = vesicles from the bolaamphiphile without additives

T1 sequence (P22303 32-614): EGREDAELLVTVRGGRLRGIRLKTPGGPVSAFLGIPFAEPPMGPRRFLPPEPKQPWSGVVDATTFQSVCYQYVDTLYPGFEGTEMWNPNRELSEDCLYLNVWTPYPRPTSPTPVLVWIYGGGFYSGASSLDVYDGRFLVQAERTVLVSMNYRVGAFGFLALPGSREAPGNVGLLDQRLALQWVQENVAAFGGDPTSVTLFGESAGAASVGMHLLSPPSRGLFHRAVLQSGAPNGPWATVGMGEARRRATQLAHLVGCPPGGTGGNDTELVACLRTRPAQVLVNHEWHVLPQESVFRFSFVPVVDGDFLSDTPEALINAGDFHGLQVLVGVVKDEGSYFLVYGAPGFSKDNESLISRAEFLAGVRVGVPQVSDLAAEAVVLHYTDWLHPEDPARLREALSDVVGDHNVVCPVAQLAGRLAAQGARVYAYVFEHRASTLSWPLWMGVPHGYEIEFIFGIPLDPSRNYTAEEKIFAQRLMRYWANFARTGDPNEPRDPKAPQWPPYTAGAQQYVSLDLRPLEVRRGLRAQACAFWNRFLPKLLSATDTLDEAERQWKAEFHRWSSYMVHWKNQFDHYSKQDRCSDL

## free enkephalin: non-encapsulated enkephalin administered together with empty vesicles (YGGFL; Leu-enkephalin; UniProt P01210 230-234, looked up)
[1]
  analgesia: not

## CCCCCCCCC(OC(=O)C[N+](C)(C)CCOC(C)=O)C(O)CCCCCCCC(=O)OCCCCCCCCCCOC(=O)CCCCCCCC(O)C(CCCCCCCC)OC(=O)C[N+](C)(C)CCOC(C)=O.[Cl-].[Cl-] (stereo not drawn) [GLH-32]
[2]
  hydrolysis of ACh head group by AChE / ChE: hydrolyzed by AChE
[3]; [13]
  Diameter (nm): 134 nm
  Weight (%) main peak: 100%
[3]; [14]
  Diameter (nm): 345 nm
  Weight of Main peak (%): 68%
[4]
  type of inhibition of ATC hydrolysis by AChE: competitive inhibitors

## carboxyfluorescein [free CF]
[5]
  brain penetration of free CF: hardly entered the brain
[5]; listed as Free CF
  brain penetration of free CF: did not penetrate into the brain in significant amounts

## CCCCCC(OC(=O)C[N+](C)(C)CCOC(C)=O)C(O)C/C=C\CCCCCCCC(=O)NCCCCCCCCCCOC(=O)CCCCCCC/C=C\CC(O)C(CCCCC)OC(=O)C[N+](C)(C)CCOC(C)=O.[Cl-].[Cl-] (stereo not drawn) [GLH-20]
[2]
  hydrolysis of ACh head group by AChE / ChE: hydrolyzed by choline esterases; also recorded: significantly faster
[3]; [13]
  Diameter (nm): 120 nm
  Weight (%) main peak: 100%
[3]; [14]
  Diameter (nm): 368 nm
  Weight of Main peak (%): 97%
[4]
  type of inhibition of ATC hydrolysis by AChE: competitive inhibitors

## CCCCCC(OC(=O)CCCC(=O)OCC[N+](C)(C)C)C(O)C/C=C\CCCCCCCC(=O)NCCCCCCCCCCNC(=O)CCCCCCC/C=C\CC(O)C(CCCCC)OC(=O)CCCC(=O)OCC[N+](C)(C)C.[Cl-].[Cl-] (stereo not drawn) [GLH-19]
[2]
  hydrolysis of ACh head group by AChE / ChE: not hydrolyzed by AChE
[6]
  toxicity relative to GLH-20: less toxic

## CCCCCC(OC(=O)C[N+](C)(C)CCOC(C)=O)C(O)C/C=C\CCCCCCCC(=O)NCCCCCCCCCCOC(=O)CCCCCCC/C=C\CC(O)C(CCCCC)OC(=O)C[N+](C)(C)CCOC(C)=O.[Cl-].[Cl-] (stereo not drawn) [GLH-20 (empty vesicles)]
[7]
  vesicle stability in storage: stable in storage

## un-encapsulated albumin-FITC: albumin-FITC (non-encapsulated)
[8]
  brain accumulation of albumin-FITC: little, if any, brain accumulation

B1: trypsinogen: model protein for GDNF, from bovine pancreas (protein, UniProt P00760 18-246, looked up)
pro-form: VDDDDKIVGGYTCGANTVPYQVSLNSGYHFCGGSLINSQWVVSAAHCYKSGIQVRLGEDNINVVEGNEQFISASKSIVHPSYNSNTLNNDIMLIKLKSAASLNSRVASISLPTSCASAGTQCLISGWGNTKSSGTSYPDVLKCLKAPILSDSSCKSAYPGQITSNMFCAGYLEGGKDSCQGDSGGPVVCSGKLQGIVSWGSGCAQKNKPGVYTKVCNYVSWIKQTIASN
modifications: pro-form
notes: model protein for GDNF, from bovine pancreas
[9]; 50 μg/ml trypsinogen (AlexaFluor-488)
  percent encapsulation: 54%
[9]; 100 μg/ml trypsinogen (AlexaFluor-488)
  percent encapsulation: 42%

B2: GDNF: glial cell line-derived neurotrophic factor, human (protein, UniProt P39905 78-211, looked up)
Glial cell line-derived …: SPDKQMAVLPRRERNRQAAAANPENSRGKGRRGQRGKNRGCVLTAIHLNVTDLGLGYETKEELIFRYCSGSCDAAETTYDKILKNLSRNRRLVSDKVGQACCRPIAFDDDLSFLDDNLVYHILRKHSAKRCGCI
[10]
  GDNF integrity after encapsulation with sonication: no fragmentation
[11]
  percent encapsulation: 66%
[12]
  phosphorylation of AKT and MAPK: same degree of phosphorylation
